Values joined by “and” are separate entries in the source; they are usually repeats but may differ in a detail not shown here. Equal entries are not always repeated.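 Five concentrations, 48 hours, 96-well plates. The concentration for 50% growth inhibition is given as GI50. Definition used: TGI = concentration required for complete inhibition of growth.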
Columns and labels:
Assay in all cases: growth of human tumour cells (NCI), 48 h
DU-145 prostate = test system: DU-145 prostate
MDA-MB-435 = test system: MDA-MB-435
PC-3 prostate = test system: PC-3 prostate
NCI/ADR-RES ovarian = test system: NCI/ADR-RES ovarian
MDA-N = test system: MDA-N
LXFL 529 NSCLC = test system: LXFL 529 NSCLC
HOP-18 NSCLC = test system: HOP-18 NSCLC
DMS 114 small cell lung = test system: DMS 114 small cell lung

SMILES	GI50 (DU-145 prostate) [µM]	TGI (DU-145 prostate) [µM]	GI50 (MDA-MB-435) [µM]	TGI (MDA-MB-435)	GI50 (PC-3 prostate) [µM]	TGI (PC-3 prostate)	GI50 (NCI/ADR-RES ovarian) [µM]	TGI (NCI/ADR-RES ovarian)	TGI (MDA-N) [µM]	TGI (LXFL 529 NSCLC) [µM]	TGI (HOP-18 NSCLC)	GI50 (LXFL 529 NSCLC) [µM]	TGI (DMS 114 small cell lung) [µM]
COc1ccc2c(c1)[n+](=O)c(/C=C/C(=O)c1cc(OC)c(OC)c(OC)c1)c(C)n2[O-]	2.1	13.4	6.65	> 100 µM	15.7	> 100 µM	11.3	39.5 µM	–	–	–	–	–
Cc1cc(C)c(-c2c(O)c(Br)c(-c3c(C)cc(C)c(Br)c3C)c(O)c2Br)c(C)c1Br	4.21	16	2.35	8.55 µM	1.88	8.76 µM	2.88	10.7 µM	–	–	–	–	–
COc1ccc(CN2c3ccccc3Sc3ccccc32)cc1O	0.374	15	–	–	0.503	16.1 µM	0.291	0.863 µM	–	–	–	–	–
NC(=S)c1cccc(C2Nc3ccccc3O2)c1 (stereo not given)	–	> 100	–	> 100 µM	–	> 100 µM	–	> 100 µM	–	–	–	–	–
CC(=O)/C(=N\N=C(N)N)c1ccccc1	–	> 100	–	> 100 µM	–	> 100 µM	–	> 100 µM	> 100	–	–	–	–
CSCc1ncc(-c2ccc(C(F)(F)F)cc2)c(NC2CCCCCC2)n1	> 10	> 10	> 10	> 10 µM	> 10	> 10 µM	> 10	> 10 µM	–	–	–	–	–
Cc1cc(C)nc(NC(=O)COc2ccc(Cl)cc2)c1	–	> 100	–	> 100 µM	–	> 100 µM	–	> 100 µM	> 100	–	–	–	–
CC(NC1CCCC[C@@H]1O)c1ccccc1 (stereo not given in full)	–	–	–	–	–	–	–	–	–	> 100	> 100 µM	–	–
CCOC(=O)c1sc(NC(=O)COc2ccc(/C=C3\CCc4cc(OC)ccc4C3=O)cc2)nc1C	12.8	26.4	4.05	18.3 µM	10.2	> 57.3 µM	8.49	37.5 µM	–	–	–	–	–
O=C(O)CCN1C(=S)CSC1=S	–	> 100	–	> 100 µM	–	> 100 µM	–	> 100 µM	> 100	–	–	–	–
COc1ccc(N=c2nc3sc4cc(Cl)ccc4n3c(N)c2C#N)cc1	35.8	> 100	3.98	> 100 µM	15.4	> 100 µM	2.95	9.08 µM	–	–	–	–	–
N.N.N.N.O=S([O-])[O-].[Co+3].[N-]=[N+]=[N-]	–	–	–	–	–	–	–	–	–	> 100	–	> 100	–
CCOC(=O)C(Cc1cc(OC)c(CC(C(=O)OCC)C(=O)OCC)cc1OC)C(=O)OCC	–	> 100	–	> 100 µM	–	> 100 µM	–	> 100 µM	> 100	> 100	–	–	> 100
O=C(O)C12C=CC(C1)c1ccccc12 (stereo not given)	–	–	–	–	–	–	–	–	–	> 100	> 100 µM	–	> 100
Nc1ccccc1SC(/C=C/NNC1=NC(c2ccccc2)C(c2ccccc2)=NN1)c1ccccc1 (stereo not given)	–	–	–	–	–	–	–	–	–	–	–	–	30.1
S=C(Nc1ccc(-c2nc3ccccc3s2)cc1)Nc1ccc(-c2nc3ccccc3s2)cc1	19.1	62.5	24.8	73 µM	26.8	> 100 µM	22.5	52 µM	–	–	–	–	–
Fc1ccc(-c2ncn(C3CCNCC3)c2-c2ccnc(Oc3ccc(Cl)cc3)n2)cc1	6.37	> 15.8	4.04	8.21 µM	6.31	> 15.9 µM	6.03	> 22.7 µM	–	–	–	–	–

SMILES	GI50 (DU-145 prostate) [µM]	TGI (DU-145 prostate) [µM]	GI50 (MDA-MB-435) [µM]	TGI (MDA-MB-435)	GI50 (PC-3 prostate) [µM]	TGI (PC-3 prostate)	GI50 (NCI/ADR-RES ovarian) [µM]	TGI (NCI/ADR-RES ovarian)	TGI (MDA-N) [µM]	TGI (LXFL 529 NSCLC) [µM]	TGI (HOP-18 NSCLC)	GI50 (LXFL 529 NSCLC) [µM]	TGI (DMS 114 small cell lung) [µM]
O=C1N=C2N=C(c3ccc(Cl)cc3)N(c3ccc(Cl)cc3)N2Sc2ccccc21	–	–	–	–	–	–	–	–	–	> 100	> 100 µM	–	> 100
O=C(Cc1nc2ccccc2s1)C(=O)Nc1cccc(C(F)(F)F)c1	–	–	–	–	–	–	–	–	–	> 100	> 100 µM	–	> 100
CCCC(=O)Nc1cc(/C=C/C(=O)N2C[C@@H]3C[C@]34C2=CC(=O)c2[nH]cc(C)c24)n(C)c1	0.0252	–	0.184	1.05 µM and 0.471 µM	0.125	5.7 µM and 0.625 µM	0.946	6.38 µM and 4.77 µM	0.879	–	–	–	–
CCCCn1c(-c2ccccc2)cs/c1=N\NC(=O)Cn1c(C)nc2ccccc21	–	–	–	–	–	–	–	–	–	> 100	> 100 µM	–	–
NCCOCCOCC(=O)O	–	–	–	–	–	–	–	–	–	> 100	–	–	> 100
O=C(NNC(=O)c1ccncc1)C(=O)Nc1cc(Cl)c(Cl)cc1Cl	–	–	–	> 100 µM	–	> 100 µM	–	> 100 µM	> 100	–	–	–	–
CC(C)(C)OC(=O)NCCCCCCCCCCCCn1c2c(c3ccccc3c1=O)C(=O)c1ccccc1-2	91.6	> 100	> 100	> 100 µM	> 100	> 100 µM	51.2	> 100 µM	–	–	–	–	–
CCNC(=O)COc1ccc(Cl)c(C)c1	–	–	–	–	–	–	–	–	–	> 100	> 100 µM	–	> 100
O=C(NC1=C(Cl)C(=O)c2ccccc2C1=O)C(=O)c1c(O)c2ccccc2oc1=O	–	2.93	–	2.97 µM	–	> 27.1 µM	–	20 µM	2.7	–	–	–	–
CCNc1ccc2c(c1)C(=O)N(OS(C)(=O)=O)C2=O	–	> 100	–	> 100 µM	–	> 100 µM	–	> 100 µM	> 100	–	–	–	–
C/C(=N/NC(N)=S)C(CN1CCOCC1)C(C1=C(O)c2ccccc2OC1)c1ccccc1 (stereo not given)	–	> 100	–	–	–	–	–	–	–	> 100	> 100 µM	–	–
Cn1cc(-c2csc(-c3ccc(Cl)cc3)n2)c2cccnc21	15.3	28.9	12.8	33.6 µM	11.4	34.2 µM	15.8	34.4 µM	–	–	–	–	–
Cc1c2cc[n+](C)cc2c(C)c2c1[nH]c1ccc(OCC(F)(F)F)cc12	–	–	–	–	–	–	–	–	–	6.5	23.4 µM and > 100 µM	–	> 21.6
COc1ccc(/C=C(\C#N)c2cc(OC)c(OC)c(OC)c2)cc1	–	–	–	–	0.0308	> 87.1 µM	–	–	–	–	–	–	–
COc1ccc(C(=O)c2ccccc2)c(O)c1	80	> 100	66.6	> 100 µM	> 100	> 100 µM	53.1	> 100 µM	–	–	–	–	–
OC[C@H]1N[C@H](CO)[C@@H](O)[C@H]1O	–	> 100	–	> 100 µM	–	> 100 µM	–	> 100 µM	–	–	–	–	–
BrCc1ccc2ccc3ccc(CBr)nc3c2n1	–	21.7	–	16.6 µM	–	5.75 µM	–	5.15 µM	12.7	3.19	5.48 µM	–	15.4
